Results taken from patent US10226062B2, “Organic compounds” (priority 2013, dated 2019).

Assays:
Type in all cases: in vivo
[1] = tested on: umami and salt taste of 0.5% NaCl solution; test: Tasting of NaCl solutions by flavourists (Example 2); details: 0.5% NaCl + 5 ppm compound compared with 0.5% NaCl reference; scale -3 (much lower) to 3 (much higher), 0 = same as reference; average of flavourists' ratings
Experimental: An aqueous NaCl solution (0.5% by weight) was prepared (reference) to which 5 ppm of a compound of formula (I) was added.
The samples were tasted by a group of flavourists. The intensity of the umami and salt taste of the NaCl solutions comprising a compound of formula (I) (0.5% NaCl; 5 ppm of a compound of formula (I)) was compared with that of the reference (0.5% NaCl) and rated according to the following intensity scale:
Taste effect much lower than reference: −3
Taste effect lower than reference: −2
Taste effect slightly lower than reference: −1
Taste effect same as reference: 0
Taste effect slightly higher than reference: 1
Taste effect higher than reference: 2
Taste effect much higher than reference: 3

[2] = tested on: taste of NaCl, MSG and Ribo solutions; test: Taste enhancement of NaCl, MSG and Ribo solutions, tasted by flavourists (Example 3); details: linear scale 0 to 10; for Taste intensity NaCl: solution D (0.5% NaCl + 5 ppm compound) compared with A (0.5% NaCl, = 0.0), 5-10 flavourists; for Taste intensity MSG: solution E (0.5% NaCl + 0.03% MSG + 5 ppm compound) compared with B (0.5% NaCl + 0.03% MSG, = 5.0); for Taste intensity Ribo: solution F (0.5% NaCl + 0.015% Ribo + 5 ppm compound) compared with C (0.5% NaCl + 0.015% Ribo, = 5.0)
Experimental: Six solutions were prepared: • A a solution of 0.5% NaCl • B a solution of 0.5% NaCl and 0.03% MSG (monosodium glutamate) • C a solution of 0.5% NaCl and 0.015% Ribo (disodium 5-ribonucleotides=E635) • D a solution of 0.5% NaCl and 5 ppm of a compound of formula (I) • E a solution of 0.5% NaCl and 0.03% MSG and 5 ppm a compound of formula (I) • F a solution of 0.5% NaCl and 0.015% Ribo and 5 ppm of a compound of formula (I)
The samples were tasted by a group of 5-10 flavourists aged between 30 and 60. The taste of solution D was compared with that of A to determine the enhancement effect of a compound of formula (I) on NaCl. Similarly, solution E was compared with solution B and solution F with solution C to determine the enhancement effect of a compound of formula (I) on MSG and Ribo respectively. The effect was marked on a linear scale between 0 and 10, the greater the value the greater the effect. For a reference, the taste solutions of B and C were compared with A as well.

[3] = tested on: taste of vegetarian bouillon; test: Vegetarian bouillon tasting by flavourists (Example 4); details: 10 ppm compound in vegetarian bouillon (32 g mix in 1 L boiling water); 4 flavourists
Experimental: A vegetarian bouillon mix was prepared from 204.71 g of sodium chloride, 147.76 g of dextrose monohydrate (ex Tapioca), 0.19 g of celery oleoresin, 0.19 g of oleoresin coriander seed, 418.64 g maltodextrin 5-8 DE, 37.65 g vegetable oil soya bean refined, 28.24 g yeast standard light, 3.76 g of onion powder, 3.76 g of garlic powder, 0.47 g of white pepper and 154.35 g of potato starch.
32 g of the well-mixed ingredients was added to 1 L of boiling water and stirred until completely dissolved.

[4] = tested on: umami- and salt-taste in comestible products; test: Taste imparted in comestible products (general statement)

Row | SMILES | Taste intensity Salt (NaCl) [1] | Taste intensity Umami [1] | Taste intensity NaCl [2] | Taste intensity MSG [2] | Taste intensity Ribo [2] | Taste of test bouillon compared with reference bouillon [3] | Taste imparted in comestible products [4]
1 | CCC(CO)NCc1ccc2c(c1)OCO2 (stereo not shown) [N-piperonyl 1-hydroxy-2-butylamine] | 0.67 | 0.33 | 1.0 | 5.3 | 5.0 |  | 
2 | CCC(CC)NCc1ccc2c(c1)OCO2 [N-piperonyl 3-pentylamine] | 0.50 | 0.00 | 1.0 | 6.3 | 5.3 | more umami, sweeter and more lingering | 
3 | CCNCc1ccc(O)c(OC)c1.Cl [N-vanillyl ethylamine hydrochloride] | 0.67 | 0.67 |  |  |  |  | 
4 | CCNCc1ccc2c(c1)OCO2 [N-piperonyl ethylamine] | 0.75 | 0.25 | 1.3 | 6.6 | 5.6 | more umami, more salty, slightly sweeter and had a slightly more powdery volatile effect | imparted an umami- and salt-taste
5 | OCC(CO)NCc1ccc2c(c1)OCO2 [N-piperonyl 1,3-dihydroxy-2-propylamine] | 1.00 | 0.50 | 2.3 | 5.0 | 5.0 |  | 
6 | OCCNCc1ccc2c(c1)OCO2 [N-piperonyl 2-hydroxyethylamine] | 0.75 | 0.00 |  |  |  |  | 
7 | C[C@H](NCc1ccc2c(c1)OCO2)C(=O)O [N-piperonyl alanine] | 0.50 | 0.00 |  |  |  |  | 
8 | CC(C)NCc1ccc2c(c1)OCO2 [N-piperonyl isopropylamine] | 0.50 | 0.00 |  |  |  |  | 
9 | CNCc1ccc2c(c1)OCO2 [N-piperonyl methylamine] | 0.25 | 0.00 |  |  |  |  | 
10 | COc1cc(CNCCO)ccc1O.Cl [N-(2-hydroxyethyl) vanillylamine hydrochloride] | 0.33 | 0.67 |  |  |  |  | 
11 | CCCNCc1ccc2c(c1)OCO2 [N-piperonyl n-propylamine] | 1.00 | 0.00 |  |  |  |  | 
